Assay results as given in PubChem BioAssay (NCI).
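GI50: concentration for 50% inhibition of growth. Definition used: TGI = concentration required for complete inhibition of growth.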

Tests used:
Assay in all cases: DTP human tumour cell line panel, 384-well format
EKVX NSCLC = tested on: EKVX NSCLC
OVCAR-3 ovarian = tested on: OVCAR-3 ovarian
SF-539 CNS = tested on: SF-539 CNS
OVCAR-8 ovarian = tested on: OVCAR-8 ovarian
COLO 205 colon = tested on: COLO 205 colon
T-47D breast = tested on: T-47D breast
RXF 393 renal = tested on: RXF 393 renal
HOP-62 NSCLC = tested on: HOP-62 NSCLC
SK-MEL-2 melanoma = tested on: SK-MEL-2 melanoma
SW-620 colon = tested on: SW-620 colon
HOP-92 NSCLC = tested on: HOP-92 NSCLC
MDA-MB-468 breast = tested on: MDA-MB-468 breast
PC-3 prostate = tested on: PC-3 prostate
NCI-H322M lung = tested on: NCI-H322M lung
OVCAR-4 ovarian = tested on: OVCAR-4 ovarian
MDA-MB-435 melanoma = tested on: MDA-MB-435 melanoma
NCI/ADR-RES ovarian = tested on: NCI/ADR-RES ovarian
786-0 renal = tested on: 786-0 renal
BT-549 breast = tested on: BT-549 breast
A549 NSCLC = tested on: A549 NSCLC
A498 renal = tested on: A498 renal
SK-MEL-5 melanoma = tested on: SK-MEL-5 melanoma
CCRF-CEM leukemia = tested on: CCRF-CEM leukemia
HT29 colon = tested on: HT29 colon
SK-MEL-28 melanoma = tested on: SK-MEL-28 melanoma
ACHN renal = tested on: ACHN renal
SK-OV-3 ovarian = tested on: SK-OV-3 ovarian
IGROV1 ovarian = tested on: IGROV1 ovarian
SF-268 CNS = tested on: SF-268 CNS
DU-145 prostate = tested on: DU-145 prostate
MALME-3M melanoma = tested on: MALME-3M melanoma
CAKI-1 renal = tested on: CAKI-1 renal
NCI-H522 lung = tested on: NCI-H522 lung
U251 glioblastoma = tested on: U251 glioblastoma
HCT-15 colon = tested on: HCT-15 colon
SR leukemia = tested on: SR leukemia
MCF7 breast = tested on: MCF7 breast
OVCAR-5 ovarian = tested on: OVCAR-5 ovarian
HS 578T breast = tested on: HS 578T breast
UACC-62 melanoma = tested on: UACC-62 melanoma
HCC-2998 colon = tested on: HCC-2998 colon
NCI-H460 NSCLC = tested on: NCI-H460 NSCLC
NCI-H23 lung = tested on: NCI-H23 lung
SN12C renal = tested on: SN12C renal
MOLT-4 leukemia = tested on: MOLT-4 leukemia
KM12 colon = tested on: KM12 colon
UACC-257 melanoma = tested on: UACC-257 melanoma
HL-60(TB) leukemia = tested on: HL-60(TB) leukemia
TK-10 renal = tested on: TK-10 renal
M14 melanoma = tested on: M14 melanoma
SNB-19 CNS = tested on: SNB-19 CNS
RPMI-8226 leukemia = tested on: RPMI-8226 leukemia
SF-295 CNS = tested on: SF-295 CNS
NCI-H226 lung = tested on: NCI-H226 lung
MDA-MB-231 breast = tested on: MDA-MB-231 breast
SNB-75 CNS = tested on: SNB-75 CNS

For `CC(C)n1nc(-c2ccc3oc(N)nc3c2)c2c(N)ncnc21`, the GI50 (EKVX NSCLC) was 18.2 nM, the TGI (EKVX NSCLC) was 122 nM and the GI50 (OVCAR-3 ovarian) was 22.2 nM. The TGI (OVCAR-3 ovarian) was 1160 nM, the GI50 (SF-539 CNS) was 32.8 nM and the TGI (SF-539 CNS) was 626 nM. It also gave a GI50 (OVCAR-8 ovarian) of 40.1 nM, a TGI (OVCAR-8 ovarian) of 858 nM and a GI50 (COLO 205 colon) of 12.6 nM. The TGI (COLO 205 colon) was 64 nM, the GI50 (T-47D breast) was < 10 nM and the TGI (T-47D breast) was < 10 nM. For the same molecule, the GI50 (RXF 393 renal) was 12.5 nM, the TGI (RXF 393 renal) was 50.3 nM and the GI50 (HOP-62 NSCLC) was 12.4 nM. It also gave a TGI (HOP-62 NSCLC) of 119 nM, a GI50 (SK-MEL-2 melanoma) of 53.7 nM and a TGI (SK-MEL-2 melanoma) of 92.1 nM. For the same molecule, the GI50 (SW-620 colon) was 113 nM, the TGI (SW-620 colon) was 3140 nM and the GI50 (HOP-92 NSCLC) was 20.2 nM. For the same molecule, the TGI (HOP-92 NSCLC) was 190 nM, the GI50 (MDA-MB-468 breast) was < 10 nM and the TGI (MDA-MB-468 breast) was 15.2 nM. The GI50 (PC-3 prostate) was < 10 nM, the TGI (PC-3 prostate) was 85.3 nM and the GI50 (NCI-H322M lung) was 14.2 nM. For the same molecule, the TGI (NCI-H322M lung) was 2270 nM, the GI50 (OVCAR-4 ovarian) was 18.5 nM and the TGI (OVCAR-4 ovarian) was 56.7 nM. The GI50 (MDA-MB-435 melanoma) was 26.4 nM, the TGI (MDA-MB-435 melanoma) was 152 nM and the GI50 (NCI/ADR-RES ovarian) was 35.9 nM. The TGI (NCI/ADR-RES ovarian) was 402 nM, the GI50 (786-0 renal) was 44.8 nM and the TGI (786-0 renal) was 1510 nM. For the same molecule, the GI50 (BT-549 breast) was 12.1 nM, the TGI (BT-549 breast) was 56.9 nM and the GI50 (A549 NSCLC) was 17.9 nM. The TGI (A549 NSCLC) was 259 nM, the GI50 (A498 renal) was < 10 nM and the TGI (A498 renal) was 22 nM. For the same molecule, the GI50 (SK-MEL-5 melanoma) was 13.8 nM, the TGI (SK-MEL-5 melanoma) was 45.8 nM and the GI50 (CCRF-CEM leukemia) was 16.1 nM. For the same molecule, the TGI (CCRF-CEM leukemia) was 258 nM, the GI50 (HT29 colon) was 44.5 nM and the TGI (HT29 colon) was 10400 nM. It also gave a GI50 (SK-MEL-28 melanoma) of 18.7 nM, a TGI (SK-MEL-28 melanoma) of 83.9 nM and a GI50 (ACHN renal) of 36.2 nM. For the same molecule, the TGI (ACHN renal) was 347 nM, the GI50 (SK-OV-3 ovarian) was < 10 nM and the TGI (SK-OV-3 ovarian) was 42 nM. For the same molecule, the GI50 (IGROV1 ovarian) was < 10 nM, the TGI (IGROV1 ovarian) was 26.6 nM and the GI50 (SF-268 CNS) was 40.8 nM. It also gave a TGI (SF-268 CNS) of 579 nM, a GI50 (DU-145 prostate) of 35.4 nM and a TGI (DU-145 prostate) of 2680 nM. For the same molecule, the GI50 (MALME-3M melanoma) was < 10 nM, the TGI (MALME-3M melanoma) was < 10 nM and the GI50 (CAKI-1 renal) was 14.7 nM. The TGI (CAKI-1 renal) was 82.8 nM, the GI50 (NCI-H522 lung) was < 10 nM and the TGI (NCI-H522 lung) was 32.6 nM. The GI50 (U251 glioblastoma) was 66.2 nM, the TGI (U251 glioblastoma) was 7220 nM and the GI50 (HCT-15 colon) was < 10 nM. The TGI (HCT-15 colon) was 11600 nM, the GI50 (SR leukemia) was 17.3 nM and the TGI (SR leukemia) was 63.5 nM. For the same molecule, the GI50 (MCF7 breast) was < 10 nM, the TGI (MCF7 breast) was 7120 nM and the GI50 (OVCAR-5 ovarian) was 24.5 nM. For the same molecule, the TGI (OVCAR-5 ovarian) was 603 nM, the GI50 (HS 578T breast) was < 10 nM and the TGI (HS 578T breast) was 26.4 nM. It also gave a GI50 (UACC-62 melanoma) of 18.4 nM, a TGI (UACC-62 melanoma) of 78 nM and a GI50 (HCC-2998 colon) of 15.3 nM. For the same molecule, the TGI (HCC-2998 colon) was 5310 nM, the GI50 (NCI-H460 NSCLC) was < 10 nM and the TGI (NCI-H460 NSCLC) was 1870 nM. It also gave a GI50 (NCI-H23 lung) of 74.3 nM, a TGI (NCI-H23 lung) of 1630 nM and a GI50 (SN12C renal) of 10.5 nM. For the same molecule, the TGI (SN12C renal) was 1450 nM, the GI50 (MOLT-4 leukemia) was 17.7 nM and the TGI (MOLT-4 leukemia) was 726 nM. It also gave a GI50 (KM12 colon) of 21.7 nM, a TGI (KM12 colon) of 1840 nM and a GI50 (UACC-257 melanoma) of 51.4 nM. It also gave a TGI (UACC-257 melanoma) of 523 nM, a GI50 (HL-60(TB) leukemia) of 326 nM and a TGI (HL-60(TB) leukemia) of 3000 nM. The GI50 (TK-10 renal) was 11.6 nM, the TGI (TK-10 renal) was 109 nM and the GI50 (M14 melanoma) was 14.7 nM. For the same molecule, the TGI (M14 melanoma) was 165 nM, the GI50 (SNB-19 CNS) was 69.6 nM and the TGI (SNB-19 CNS) was 10600 nM. For the same molecule, the GI50 (RPMI-8226 leukemia) was < 10 nM, the TGI (RPMI-8226 leukemia) was < 10 nM and the GI50 (SF-295 CNS) was 27.8 nM. The TGI (SF-295 CNS) was 380 nM, the GI50 (NCI-H226 lung) was 10.2 nM and the TGI (NCI-H226 lung) was 62.7 nM. The GI50 (MDA-MB-231 breast) was 18.7 nM, the TGI (MDA-MB-231 breast) was 681 nM and the GI50 (SNB-75 CNS) was < 10 nM. The TGI (SNB-75 CNS) was 42 nM.
